pIC50: −log10 of the molar value.
Key:
HLM (Phase 1) = assay: Reaction phenotyping, HLM with NADPH; assay type: in vitro ADME, human
HLM (Phase 2) = assay: Reaction phenotyping, HLM with UDPGA; details: HLM (Phase 2)
CYP1A2 mRNA = system: CYP1A2 mRNA; set-up: method as in PMID 23965226; details: 10 μM DPV, colorectal tissue from three human donors; cited from earlier work
CYP3A4 mRNA = system: CYP3A4 mRNA; set-up: method as in PMID 23965226; details: 10 μM DPV, colorectal tissue from three human donors; cited from earlier work
CYP2B6 mRNA = system: CYP2B6 mRNA; set-up: method as in PMID 23965226; details: 10 μM DPV, colorectal tissue from three human donors; cited from earlier work
[1] = system: primary human hepatocytes; assay: Cytotoxicity in CYP induction studies; assay type: cell-based; details: 303 nM (100 ng/mL) in primary human hepatocytes
CYP2B6 = biological target: T1, CYP2B6 (Homo sapiens, UniProt P20813); assay: Enzyme inhibition assay, CYP2B6; assay type: in vitro ADME
T1 construct: tissue Xenotech LLC; host or cells: human liver microsomes, mixed-gender 50 donor pool
T1 sequence (P20813 whole entry): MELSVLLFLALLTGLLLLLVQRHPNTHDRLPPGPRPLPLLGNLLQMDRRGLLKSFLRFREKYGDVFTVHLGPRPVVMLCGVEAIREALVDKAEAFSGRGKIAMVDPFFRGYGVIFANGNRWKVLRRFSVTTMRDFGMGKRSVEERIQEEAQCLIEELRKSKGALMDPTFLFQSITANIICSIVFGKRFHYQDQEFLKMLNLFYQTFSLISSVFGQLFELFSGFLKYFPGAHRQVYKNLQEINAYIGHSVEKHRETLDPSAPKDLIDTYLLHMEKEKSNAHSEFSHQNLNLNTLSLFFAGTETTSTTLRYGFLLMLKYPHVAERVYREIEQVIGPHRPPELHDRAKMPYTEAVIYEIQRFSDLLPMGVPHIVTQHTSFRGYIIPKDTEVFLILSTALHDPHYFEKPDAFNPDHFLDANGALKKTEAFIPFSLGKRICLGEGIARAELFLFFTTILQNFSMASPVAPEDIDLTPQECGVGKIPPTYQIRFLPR

CYP2C19 = CYP2C19 (Homo sapiens, UniProt P33261); assay: Enzyme inhibition assay, CYP2C19
CYP2C19, sequence (P33261 whole entry): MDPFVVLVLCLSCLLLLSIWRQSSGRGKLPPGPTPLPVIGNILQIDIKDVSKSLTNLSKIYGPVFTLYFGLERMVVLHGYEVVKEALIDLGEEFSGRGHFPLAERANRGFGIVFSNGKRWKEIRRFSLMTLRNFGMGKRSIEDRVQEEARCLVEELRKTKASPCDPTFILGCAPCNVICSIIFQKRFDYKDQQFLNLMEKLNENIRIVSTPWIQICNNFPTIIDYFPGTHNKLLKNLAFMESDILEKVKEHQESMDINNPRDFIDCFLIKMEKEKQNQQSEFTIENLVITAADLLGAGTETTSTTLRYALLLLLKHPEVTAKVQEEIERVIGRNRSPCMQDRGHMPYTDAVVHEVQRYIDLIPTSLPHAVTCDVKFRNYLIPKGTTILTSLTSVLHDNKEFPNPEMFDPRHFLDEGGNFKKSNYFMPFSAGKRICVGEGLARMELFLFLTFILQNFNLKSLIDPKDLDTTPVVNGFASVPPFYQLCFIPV

For `Cc1cc(C)c(Nc2ccnc(Nc3ccc(C#N)cc3)n2)c(C)c1` [DPV, Dapivirine], the “% DPV Remaining at 60 min without MIC” value (HLM (Phase 1); 10 μM DPV) was 37.14%, the “% DPV Remaining at 60 min with MIC” value (HLM (Phase 1); 10 μM DPV and 30 μM MIC) was 88.39% and the “% DPV Remaining at 60 min without MIC” value (HLM (Phase 2); 10 μM DPV) was 97.15%. For the same compound, the “% DPV Remaining at 60 min with MIC” value (HLM (Phase 2); 10 μM DPV and 30 μM MIC) was 95.59%, the “CYP1A2 mRNA change” value (CYP1A2 mRNA) was “induction in one donor” and the “CYP3A4 mRNA change” value (CYP3A4 mRNA) was “induction in two donors”. For the same compound, the “CYP2B6 mRNA change” value (CYP2B6 mRNA) was “inhibition in one donor”, the cytotoxicity [1] was “no cytotoxicity observed” and the pIC50 (CYP2B6) was 5.00. For the same compound, the pIC50 (CYP2C19) was < 4.52.

— PMC8706783 (Pharmaceutics, 2021)
